In patent US6867179B1, “Methods of inducing hair growth and coloration” (Trustees of Boston University, priority 1994, dated 2005):
Entries after “also recorded” stand apart in the source; their conditions may differ.

How the values were obtained:
Format in all cases: cell-based, human
[1] = test system: melanocytes; assay: NGF protection of melanocytes from beta-amyloid-induced cell death
Procedure: Melanocytes were maintained as above in hormone supplemented medium lacking hydrocortisone. Cells were supplemented with 25 microM of beta-amyloid 1-40 in the presence of 50 ng/ml NGS or diluent.
Photographs of representative fields were obtained and the percent of the live cells (spread) was determined 48 hours after addition of beta-amyloid and NFG or beta-amyloid and diluent. In the presence of beta-amyloid and diluent 77±8.5% appeared spread as compared to 96±1.4% in cultures supplemenbetated in beta-amyloid and NGF.

[2] = test system: Bcl-2 protein; assay: Bcl-2 protein expression in MM4 cells (FACScan, Western blot)
Procedure: To determine if NGF induces Bcl-2 protein, MM4 cells were UV-irradiated with 10 mJ/cm^2 or sham irradiated and then supplemented with NGF or diluent alone as explained in Example 3. Twenty-four hours after irradiation, cells were washed with PBS and then detached with 0.5 mM EDTA and washed again with PBS. 10^6 cells were incubated with […] mouse anti human Bcl-2 monoclonal antibody (DAKO Co., Carpinteria, Calif.) or with the same concentration of normal mouse IgG (Cappel, Organon Teknika Co., West Chester, Pa., USA) in PBS with 0.3% Saponin (Sigma, St, Louis, Mo.) for 2 hours at 4%C. After three washes with PBS, cells were incubated with fluorescein-conjugated goat anti-mouse IgG (1 hour at 4%C) (Cappel), washed four times in PBS, fixed with 0.1% fresh formaldehyde, and washed three times in PBS. Fluorescence intensity was determined using FACScan flow cytometer (Becton-Dickinson, San Jose, Calif.).
(−) mouse IgG control; (_) diluent alone; ( . . . ) 50 ng/ml NGF.
MM4 cells were extracted in RIPA buffer (50 mM Tris-HCl [pH 8.0], 0.15 M NaCl, 0.5% sodium deoxycholate, 1% Triton X-100) in the presence of […] aprotinin and 75 µg/ml phenylmethylsulfonyl fluoride, sonicated for 1-3 seconds and centrifuged. […] of protein per lane were separated on 12% SDS/PAGE and blotted onto nitrocellulose paper (overnight, 40V). […]

[3] = test system: Bcl-2 protein; assay: Keratinocyte BCL-2 level after NGF deprivation (Western blot); conditions: medium lacking BPE, 50 ng/ml NGF versus diluent, 24 and 48 hours
Procedure: To determine if NGF affects BCL-2 protein level in keratinocytes, cells were maintained in Keratinocyte basal medium until 60-80% confluent. Then cells were provided medium lacking BPE to eliminate exogenous NGF. Duplicate cultures were provided 50 ng/ml NGF or diluent alone.
Total keratinocyte proteins were extracted, and BCL-2 levels were determined by Western blot analysis as in Example 6.

[4] = test system: melanocytes; assay: Apoptosis (propidium iodide-positive nuclei) in UV-irradiated melanocytes; conditions: UV 10 mJ/cm^2, 50 ng/ml NGF, 24 hours after irradiation; diluent about 30%
Procedure: To determine if melanocyte apoptosis is mediated by p75 NGF-R, cultures were treated as above, and then incubated in the presence of a blocking anti-human p75 NGF-R monoclonal antibody believed to act as a pseudo-ligand for the p75 NGF-R. (Anti-human p75 NGF-R monoclonal antibody courtesy of Moses V. Chao, Cornell University Medical Center, New York, N.Y.; Ross, et al., Proc. Natl. Acad. Sci. 81:6681 (1984)).
Melanocytes were cultured on 8 chamber tissue culture slides (Nunc Inc., Naperville, Ill.) and were UV irradiated with 10 mJ/cm^2 as above. Four microM of propidium iodide (PI) was added to melanocyte cultures 24 hours after irradiation, for 5 minutes at […]. Cultures were washed with PBS and nuclei were analyzed using a Leitz confocal laser microscope (Leica, Deerfield, Ill.).
Melanocytes were sham or UV irradiated with 10 mJ/cm^2 and 25 mJ/cm^2. Twenty-four hours after irradiation, […] of propidium iodide was added to cultures as above and cells were viewed with fluorescent phase contrast Nikon microscope. The number of fragmented or homogeneously stained nuclei versus nonstained nuclei was determined in several representative fields and expressed as a percent of total cells. A minimum of 130 cells were counted for each condition.
Melanocytes were irradiated with 10 mJ/cm^2 or were sham irradiated as in Example 1 and then provided 50 ng/ml NGF or diluent alone. […]

[5] = NGF supplementation, preliminary data

Substance: NGF: nerve growth factor, neurotrophin ligand of p75 NGF-R and trk
- Percent of live cells (spread) ([1]; 25 microM beta-amyloid 1-40 and 50 ng/ml NGF, 48 hours): 96±1.4%
- Cell yields of beta-amyloid-supplemented melanocytes ([1]; NGF addition, within 3-5 days): enhanced cell yields
- Bcl-2 levels in beta-amyloid treated cells [1, 5]: increases Bcl-2 levels
- Beta-amyloid-induced Bax upregulation [1, 5]: decreases the beta-amyloid-induced Bax upregulation
- Appearance of beta-amyloid exposed melanocytes ([1]; in the presence of NGF): appear healthy and spread on the dish surface
- Bcl-2 level ([2]; UV 10 mJ/cm^2 followed by 50 ng/ml NGF, 24 hours): substantially higher; also recorded: Bcl-2 induction
- Bcl-2 level ([2]; sham irradiated, 50 ng/ml NGF): only low levels of Bcl-2 protein
- BCL-2 level in keratinocytes [3]: contributes, at least in part, to BCL-2 maintenance
- Nuclei showing fragmentation (propidium iodide positive) [4]: 12%
